Measured values published in patent US10875876B2, “Cyclized sulfamoylarylamide derivatives and the use thereof as medicaments for the treatment of hepatitis B” (priority 2015, dated 2020).

Legend:
HBV = assay: anti HBV activity, HepG2.117 cell line, intracellular HBV DNA by realtime PCR; format: cell-based; settings: Hepatitis B virus, HepG2.117, 72 h, HepG2.117 cell line (Tet-off), 3 days of treatment, intracellular HBV DNA quantified by realtime PCR; read-out: HBV-AVE-HepG2.117 EC50
In short: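 Readout was intracellular HBV DNA by real-time PCR (HBV-specific primers and probe) after 3 days of compound exposure. Serial dilutions were tested in duplicate on HepG2.117 cells, a stable inducible HBV producer in which replication is switched on when doxycycline is absent.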

[1] = Cytotoxicity in HepG2 cells, Resazurin assay; settings: human, HepG2 cells, TOX-HepG2-4 d CC50 (μM), HepG2 cells incubated for 4 days, viability by Resazurin assay

| Compound | EC50 (HBV) [nM] | CC50 at 4 days [1] [µM] |
| --- | --- | --- |
| Cn1cc2c(c1C(=O)Nc1ccc(F)c(F)c1)OCC(C1CCNCC1)NS2(=O)=O (stereo not drawn) [Compound 73, N-(3,4-difluorophenyl)-7-methyl-1,1-dioxo-3-(4-piperidyl)-3,4-dihydro-2H-pyrrolo[3,4-b][1,4,5]oxathiazepine-6-carboxamide] | 480 | > 25 |
| Cc1cc(NC(=O)c2c3c(cn2C)S(=O)(=O)N[C@@H](Cc2cccnc2)CO3)ccc1F [Compound 74, (3S)—N-(4-fluoro-3-methyl-phenyl)-7-methyl-1,1-dioxo-3-(3-pyridylmethyl)-3,4-dihydro-2H-pyrrolo[3,4-b][1,4,5]oxathiazepine-6-carboxamide] | 52 | > 25 |
| Cn1cc2c(c1C(=O)Nc1ccc(F)c(C(F)F)c1)OC[C@H](Cc1cccnc1)NS2(=O)=O [Compound 75, (3S)—N-[3-(difluoromethyl)-4-fluoro-phenyl]-7-methyl-1,1-dioxo-3-(3-pyridylmethyl)-3,4-dihydro-2H-pyrrolo[3,4-b][1,4,5]oxathiazepine-6-carboxamide] | 7 | > 25 |
| CN1CCC(C2COc3c(cn(C)c3C(=O)Nc3ccc(F)c(F)c3)S(=O)(=O)N2)CC1 (stereo not drawn) [Compound 76, N-(3,4-difluorophenyl)-7-methyl-3-(1-methyl-4-piperidyl)-1,1-dioxo-3,4-dihydro-2H-pyrrolo[3,4-b][1,4,5]oxathiazepine-6-carboxamide] | 220 | > 25 |
| C[C@H](O)[C@H]1COc2c(cn(C)c2C(=O)Nc2ccnc(C(F)F)c2)S(=O)(=O)N1 [Compound 77, (3R)—N-[2-(difluoromethyl)-4-pyridyl]-3-[(1S)-1-hydroxyethyl]-7-methyl-1,1-dioxo-3,4-dihydro-2H-pyrrolo[3,4-b][1,4,5]oxathiazepine-6-carboxamide] | 230 | > 25 |
| Cn1cc2c(c1C(=O)Nc1ccc(F)c(F)c1)OCC(C1CCN(CC(F)(F)F)CC1)NS2(=O)=O (stereo not drawn) [Compound 78, N-(3,4-difluorophenyl)-7-methyl-1,1-dioxo-3-[1-(2,2,2-trifluoroethyl)-4-piperidyl]-3,4-dihydro-2H-pyrrolo[3,4-b][1,4,5]oxathiazepine-6-carboxamide] | 56 | > 25 |
| COC(C)(C)C1COc2c(cn(C)c2C(=O)Nc2ccc(F)c(F)c2)S(=O)(=O)N1 (stereo not drawn) [Compound 80, N-(3,4-difluorophenyl)-3-(1-methoxy-1-methyl-ethyl)-7-methyl-1,1-dioxo-3,4-dihydro-2H-pyrrolo[3,4-b][1,4,5]oxathiazepine-6-carboxamide] | 18 | > 25 |
| CC(C)C1CCc2c(cn(C)c2C(=O)Nc2ccc(F)c(F)c2)S(=O)(=O)N1 (stereo not drawn) [Compound 81, N-(3,4-difluorophenyl)-3-isopropyl-7-methyl-1,1-dioxo-2,3,4,5-tetrahydropyrrolo[3,4-f]thiazepine-6-carboxamide] | 2 | > 25 |
| CC(C)C1C=Cc2c(cn(C)c2C(=O)Nc2ccc(F)c(C(F)F)c2)S(=O)(=O)N1 (stereo not drawn) [Compound 82, N-[3-(difluoromethyl)-4-fluoro-phenyl]-3-isopropyl-7-methyl-1,1-dioxo-2,3-dihydropyrrolo[3,4-f]thiazepine-6-carboxamide] | 4 | > 25 |
| Cn1cc2c(c1C(=O)Nc1ccc(F)c(F)c1)OCC(CO)NS2(=O)=O (stereo not drawn) [Compound 83, N-(3,4-difluorophenyl)-3-(hydroxymethyl)-7-methyl-1,1-dioxo-3,4-dihydro-2H-pyrrolo[3,4-b][1,4,5]oxathiazepine-6-carboxamide] | 58 | > 25 |
| C[C@H](O)[C@H]1C=Cc2c(cn(C)c2C(=O)Nc2ccc(F)c(F)c2)S(=O)(=O)N1 [Compound 84, (3R)—N-(3,4-difluorophenyl)-3-[(1S)-1-hydroxyethyl]-7-methyl-1,1-dioxo-2,3-dihydropyrrolo[3,4-f]thiazepine-6-carboxamide] | 10 | > 25 |
| CC(C)C1CCc2c(cn(C)c2C(=O)Nc2ccc(F)c(C#N)c2)S(=O)(=O)N1 (stereo not drawn) [Compound 85, N-(3-cyano-4-fluoro-phenyl)-3-isopropyl-7-methyl-1,1-dioxo-2,3,4,5-tetrahydropyrrolo[3,4-f]thiazepine-6-carboxamide] | 7 | > 25 |
| CC(C)C1CCc2c(cn(C)c2C(=O)Nc2ccc(F)c(C(F)F)c2)S(=O)(=O)N1 (stereo not drawn) [Compound 86, N-[3-(difluoromethyl)-4-fluoro-phenyl]-3-isopropyl-7-methyl-1,1-dioxo-2,3,4,5-tetrahydropyrrolo[3,4-f]thiazepine-6-carboxamide] | 5 | > 25 |
| C[C@H](O)[C@H]1C=Cc2c(cn(C)c2C(=O)Nc2ccc(F)c(C#N)c2)S(=O)(=O)N1 [Compound 87, (3R)—N-(3-cyano-4-fluoro-phenyl)-3-[(1S)-1-hydroxyethyl]-7-methyl-1,1-dioxo-2,3-dihydropyrrolo[3,4-f]thiazepine-6-carboxamide] | 18 | > 25 |
| C[C@H](O)[C@H]1CCc2c(cn(C)c2C(=O)Nc2ccc(F)c(F)c2)S(=O)(=O)N1 [Compound 88, (3R)—N-(3,4-difluorophenyl)-3-[(1S)-1-hydroxyethyl]-7-methyl-1,1-dioxo-2,3,4,5-tetrahydropyrrolo[3,4-f]thiazepine-6-carboxamide] | 11 | > 25 |
| C[C@H](O)[C@H]1CCc2c(cn(C)c2C(=O)Nc2ccc(F)c(C#N)c2)S(=O)(=O)N1 [Compound 90, (3R)—N-(3-cyano-4-fluoro-phenyl)-3-[(1S)-1-hydroxyethyl]-7-methyl-1,1-dioxo-2,3,4,5-tetrahydropyrrolo[3,4-f]thiazepine-6-carboxamide] | 19 | > 25 |
| Cn1cc2c(c1C(=O)Nc1ccc(F)c(C#N)c1)OCCNS2(=O)=O [Compound 91, N-(3-cyano-4-fluoro-phenyl)-7-methyl-1,1-dioxo-3,4-dihydro-2H-pyrrolo[3,4-b][1,4,5]oxathiazepine-6-carboxamide] | 130 | > 25 |
| Cn1cc2c(c1C(=O)Nc1ccc(F)c(F)c1)OC[C@H](C(C)(C)O)NS2(=O)=O [Compound 93, (3R)—N-(3,4-difluorophenyl)-3-(1-hydroxy-1-methyl-ethyl)-7-methyl-1,1-dioxo-3,4-dihydro-2H-pyrrolo[3,4-b][1,4,5]oxathiazepine-6-carboxamide] | 12 | > 25 |
| Cn1cc2c(c1C(=O)Nc1ccc(F)c(F)c1)OCC(C(O)c1cccnc1)NS2(=O)=O (stereo not drawn) [Compound 95, N-(3,4-difluorophenyl)-3-[hydroxy(3-pyridyl)methyl]-7-methyl-1,1-dioxo-3,4-dihydro-2H-pyrrolo[3,4-b][1,4,5]oxathiazepine-6-carboxamide] | 22 | > 25 |
| C[C@H](O)[C@H]1C=Cc2c(cn(C)c2C(=O)Nc2ccnc(Br)c2)S(=O)(=O)N1 [Compound 97, (3R)—N-(2-bromo-4-pyridyl)-3-[(1S)-1-hydroxyethyl]-7-methyl-1,1-dioxo-2,3-dihydropyrrolo[3,4-f]thiazepine-6-carboxamide] | 55 | > 25 |
| Cc1cc(NC(=O)c2c3c(cn2C)S(=O)(=O)N[C@@H]([C@H](C)O)C=C3)ccc1F [Compound 99, (3R)—N-(4-fluoro-3-methyl-phenyl)-3-[(1S)-1-hydroxyethyl]-7-methyl-1,1-dioxo-2,3-dihydropyrrolo[3,4-f]thiazepine-6-carboxamide] | 4 | > 25 |
| Cn1cc2c(c1C(=O)Nc1ccc(F)c(C(F)F)c1)OC[C@H](C(C)(C)O)NS2(=O)=O [Compound 100, (3R)—N-[3-(difluoromethyl)-4-fluoro-phenyl]-3-(1-hydroxy-1-methyl-ethyl)-7-methyl-1,1-dioxo-3,4-dihydro-2H-pyrrolo[3,4-b][1,4,5]oxathiazepine-6-carboxamide] | 3 | > 25 |
| C[C@H](O)[C@H]1CCc2c(cn(C)c2C(=O)Nc2cc(F)c(F)c(F)c2)S(=O)(=O)N1 [Compound 104, (3R)-3-[(1S)-1-hydroxyethyl]-7-methyl-1,1-dioxo-N-(3,4,5-trifluorophenyl)-2,3,4,5-tetrahydropyrrolo[3,4-f]thiazepine-6-carboxamide] | 7 | > 25 |
| Cn1cc2c(c1C(=O)Nc1ccc(F)c(F)c1)OC[C@H](C(O)C1CC1)NS2(=O)=O (stereo partly drawn) [Compound 105a, (3R)-3-[cyclopropyl(hydroxy)methyl]-N-(3,4-difluorophenyl)-7-methyl-1,1-dioxo-3,4-dihydro-2H-pyrrolo[3,4-b][1,4,5]oxathiazepine-6-carboxamide] | 7 | > 25 |
| CC(C)C1CCc2c(cn(C)c2C(=O)Nc2ccnc(C(F)F)c2)S(=O)(=O)N1 (stereo not drawn) [Compound 108, N-[2-(difluoromethyl)-4-pyridyl]-3-isopropyl-7-methyl-1,1-dioxo-2,3,4,5-tetrahydropyrrolo[3,4-f]thiazepine-6-carboxamide] | 16 | > 25 |
| Cc1cc(NC(=O)c2c3c(cn2C)S(=O)(=O)NC(C(C)C)CC3)ccc1F (stereo not drawn) [Compound 109, N-(4-fluoro-3-methyl-phenyl)-3-isopropyl-7-methyl-1,1-dioxo-2,3,4,5-tetrahydropyrrolo[3,4-f]thiazepine-6-carboxamide] | 3 | > 25 |
| CN(C)CC1COc2c(cn(C)c2C(=O)Nc2ccc(F)c(F)c2)S(=O)(=O)N1 (stereo not drawn) [Compound 110, N-(3,4-difluorophenyl)-3-(dimethylaminomethyl)-7-methyl-1,1-dioxo-3,4-dihydro-2H-pyrrolo[3,4-b][1,4,5]oxathiazepine-6-carboxamide] | 200 | > 25 |
